Experiments:
IKKβ = target: T1, IKKβ (Homo sapiens, UniProt O14920); design: FLAG; made in house; host or cells: Sf9 (baculovirus); conditions: high concentrations; Yin et al.; cited from earlier work
T1 sequence (O14920 1-756): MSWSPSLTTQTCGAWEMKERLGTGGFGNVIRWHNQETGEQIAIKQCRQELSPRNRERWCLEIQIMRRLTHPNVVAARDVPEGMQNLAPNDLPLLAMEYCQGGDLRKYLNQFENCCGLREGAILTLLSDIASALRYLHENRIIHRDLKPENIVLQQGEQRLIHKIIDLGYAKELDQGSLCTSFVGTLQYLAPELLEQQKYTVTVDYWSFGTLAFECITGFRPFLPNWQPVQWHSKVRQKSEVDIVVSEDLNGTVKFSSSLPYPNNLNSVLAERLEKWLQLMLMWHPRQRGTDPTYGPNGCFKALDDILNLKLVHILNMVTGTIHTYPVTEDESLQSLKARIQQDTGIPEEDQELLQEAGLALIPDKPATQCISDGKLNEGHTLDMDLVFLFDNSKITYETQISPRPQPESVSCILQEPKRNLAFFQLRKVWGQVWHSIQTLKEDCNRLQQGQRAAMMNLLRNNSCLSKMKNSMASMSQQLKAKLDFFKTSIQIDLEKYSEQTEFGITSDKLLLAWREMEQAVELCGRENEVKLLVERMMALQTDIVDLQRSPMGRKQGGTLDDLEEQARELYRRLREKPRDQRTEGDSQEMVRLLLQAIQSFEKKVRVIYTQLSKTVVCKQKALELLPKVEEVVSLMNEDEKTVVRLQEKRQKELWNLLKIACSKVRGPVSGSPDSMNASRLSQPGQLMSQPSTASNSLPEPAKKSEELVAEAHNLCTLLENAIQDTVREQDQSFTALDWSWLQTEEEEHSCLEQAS

IKK [1] = target: T2, IKK (Homo sapiens, UniProt O14920+O15111); assay: Endogenous IKK activity (kinase assay) in treated, stimulated HeLa cells; assay type: cell-based; design: Endogenous IKK was immunoprecipitated from TNFα-stimulated HeLa cells; endogenous in cells; host or cells: HeLa; conditions: HeLa cells, 50 μM (LTB4 1 μM, 15dPGJ2 5 μM) 2 hours, TNFα 10 minutes
Experimental: (§1) Cells used in the experiments described herein were cultured in either RPMI 1640 (Jurkat cells) or DMEM (HeLa and COS cells), supplemented with 10% FBS and antibiotics. Cells were stimulated with either 25 ng/ml TPA, 20 ng/ml recombinant TNFα, or 10 ng/ml interleukin 1β (Sigma). PGA1, 15dPGJ2, T×B2, LTB4, AA and other PGs (Cayman) dissolved in ethanol were used as well, as known in the art (See e.g., Rossi et al., 94:746-750 [1997]). Controls received equal amounts of ethanol. Transfections were performed using Lipofectamine Plus (GIBCO) for HeLa and COS cells and DEAE-dextran (Sigma) for Jurkat cells. Xpress-tagged NIK, Xpress-tagged MEKK1, HA-tagged IKKα, and HA-tagged IKKβ were also used (See e.g., Zandi et al., Science 281:1360-1363 [1998]; and Delhase et al., Science 284:309-313 [1999]). COX2 and cPLA2 expression vectors were obtained from Dr. L. Feng (See also, Hirose et al., J. Am. Soc. Nephrol., 9:408-416 [1998]). PGD synthase was cloned from HT29 colon carcinoma cell line cDNA by PCR and subcloned into a pCDNA3 vector. Cells were lysed in buffer B (50 mM Tris-HCl, pH 7.5, 400 mM NaCl, 1 mM EDTA, 1 mM EGTA, 1% Triton, 0.5% NP-40, 10% glycerol, and supplemented with 20 mM β-glycerophosphate, 10 mM PNPP, […] 1 mM PMSF, 20 μg/ml aprotinin, 2.5 μg/ml leupeptin, 8.3 μg/ml bestatin, 1.7 μg/ml pepstatin, and 2 mM DTT).
(§2) Cell lysates were incubated with anti-IKKα (Pharmingen), anti-HA (12CA5; Pharmingen), anti-JNK1 (333.8; Pharmingen), or anti-p38 (New England Biolabs) for 2 hours. Then, 15 μl protein A-Sepharose (Sigma) were added and the mixture was allowed to incubate for 1 hour. After extensive washing, kinase assays were performed as known in the art (See e.g., DiDonato et al., Nature 388:548-554 [1997]). Endogenous IKK, HA-tagged IKKα, endogenous JNK1, and p38 activities were determined with GST-1κBα(1-54), GST-c-Jun(1-79), and GST-ATF2 as substrates.
(§3) In this Example, experiments to determined the effects of arachidonic acid and its metabolites on IKK activity in vivo and in vitro are described. HeLa cells were treated with 50 μM AA, PGA1, PGB2, PGD2, PGE1, PGE2, PGF1α, or thromboxane B2 (T×B2), 1 μM LTB4, or 5 μM 15dPGJ2, for 2 hours in RPMI containing 10% FCS, and stimulated with TNFα for 10 minutes. Cell lysates were then assayed for endogenous IKK activity and recovery. In this FIGURE, “control” indicates unstimulated cells, and “-” indicates treatment with diluent alone. In addition, IKK was immunoprecipitated from TNFα-stimulated HeLA cells and incubated in vitro with 100 μM AA, PGA1, PGB2, PGD2, PGE1, PGE2, PGF1α, or T×B2, 2 μM LTB4 or 10 μM 15dPGJ2, followed by kinase assay and immunoblot analysis. In this FIGURE, “control” indicates to unstimulated cells, and “-”indicates 1% ethanol.

IKK [2] = target: T2, IKK; assay: In vitro kinase assay of IKK immunoprecipitated from TNFα-stimulated HeLa cells; assay type: biochemical; design: Endogenous IKK was immunoprecipitated from TNFα-stimulated HeLa cells; endogenous in cells; host or cells: HeLa; conditions: immunoprecipitated IKK, 100 μM (LTB4 2 μM, 15dPGJ2 10 μM)
Experimental: as §2
Endogenous IKK was immunoprecipitated from TNFα-stimulated HeLa cells and the kinase activity determined in the presence of different concentrations of PGA1 (the results of which are shown in FIG. 2B) or 15dPGJ2 (the results of which are shown in FIG. 2C).
as §3
Many protein kinase inhibitors compete with binding of ATP, but preincubation in the presence of increasing concentrations of ATP had no effect on inhibition of IKKβ by 15dPGJ2, as indicated in FIG. 6A. […] The pellets were rinsed and kinase activity was measured.

NF-κB = NF-κB activation / DNA-binding activity by EMSA in stimulated HeLa cells; assay type: cell-based, human; conditions: HeLa cells stimulated with TNFα (PGA1: IL-1 or TNFα)
Experimental: as §1
Aliquots of total extracts (15 μg protein) in buffer B were incubated with a ^32P-labeled κB DNA, followed by analysis of DNA-binding activities by EMSA on 4% PAGE gels, as known in the art (See, Rossi et al., supra). Specificity of protein-DNA complexes was verified by supershift with polyclonal antibodies specific for p65 (Rel A).

T2 sequence (O15111 whole entry, one chain of several): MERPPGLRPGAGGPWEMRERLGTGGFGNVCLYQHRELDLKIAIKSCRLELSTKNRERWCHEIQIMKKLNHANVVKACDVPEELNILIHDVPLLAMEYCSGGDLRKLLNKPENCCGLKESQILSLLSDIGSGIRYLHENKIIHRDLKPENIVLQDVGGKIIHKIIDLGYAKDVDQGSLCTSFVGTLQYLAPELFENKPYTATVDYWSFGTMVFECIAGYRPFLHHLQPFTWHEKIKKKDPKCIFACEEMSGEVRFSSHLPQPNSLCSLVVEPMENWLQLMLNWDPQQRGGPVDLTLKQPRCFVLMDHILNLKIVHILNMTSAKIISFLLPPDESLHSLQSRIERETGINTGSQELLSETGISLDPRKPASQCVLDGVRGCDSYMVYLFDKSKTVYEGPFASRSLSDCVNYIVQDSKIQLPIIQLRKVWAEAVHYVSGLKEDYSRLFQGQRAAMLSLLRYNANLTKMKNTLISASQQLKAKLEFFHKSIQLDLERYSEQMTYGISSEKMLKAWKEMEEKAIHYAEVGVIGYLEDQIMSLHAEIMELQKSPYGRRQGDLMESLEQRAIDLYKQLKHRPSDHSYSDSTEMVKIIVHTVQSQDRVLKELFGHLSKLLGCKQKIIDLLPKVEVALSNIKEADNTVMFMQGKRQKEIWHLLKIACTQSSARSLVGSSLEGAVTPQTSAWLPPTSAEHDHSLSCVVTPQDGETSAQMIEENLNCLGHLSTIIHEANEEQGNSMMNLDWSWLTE
T2 sequence (Q9Y6K9 whole entry partner, one chain of several): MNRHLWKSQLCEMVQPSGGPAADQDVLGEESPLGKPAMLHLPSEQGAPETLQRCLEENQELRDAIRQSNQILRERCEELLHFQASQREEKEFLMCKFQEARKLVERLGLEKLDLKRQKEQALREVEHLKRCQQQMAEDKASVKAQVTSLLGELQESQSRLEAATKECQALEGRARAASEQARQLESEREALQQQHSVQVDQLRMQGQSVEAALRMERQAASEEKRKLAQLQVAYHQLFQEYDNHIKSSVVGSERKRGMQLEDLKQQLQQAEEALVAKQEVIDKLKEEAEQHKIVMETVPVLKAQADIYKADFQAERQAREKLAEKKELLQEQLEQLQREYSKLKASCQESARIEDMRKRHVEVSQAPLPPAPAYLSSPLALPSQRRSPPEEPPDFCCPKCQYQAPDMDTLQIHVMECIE

Row | effect on IKK activity in vivo (cells), FIG. 5A (IKK [1]) | effect on IKK activity in vitro, FIG. 5B (IKK [2]) | Compound | inhibition of IKKβ (IKKβ) | effect on NF-κB activation (NF-κB)
1 | ineffective | ineffective | CCCCC/C=C\C[C@@H](O)/C=C/C=C/C=C\[C@@H](O)CCCC(=O)O [leukotriene B4] |  | 
2 | ineffective | ineffective | CCCCC[C@H](O)/C=C/[C@H]1C(=O)C[C@H](O)[C@@H]1C/C=C\CCCC(=O)O [PGD2] |  | 
3 | ineffective | ineffective | CCCCC[C@H](O)/C=C/C1=C(C/C=C\CCCC(=O)O)C(=O)CC1 [PGB2] |  | 
4 | ineffective | ineffective | CCCCC[C@H](O)/C=C/[C@H]1[C@H](O)CC(=O)[C@@H]1CCCCCCC(=O)O [PGE1] |  | 
5 | ineffective | ineffective | CCCCC[C@H](O)/C=C/[C@H]1OC(O)C[C@H](O)[C@@H]1C/C=C\CCCC(=O)O (stereo partly drawn) [thromboxane B2] |  | 
6 | ineffective | ineffective | CCCCC[C@H](O)/C=C/[C@H]1[C@H](O)CC(=O)[C@@H]1C/C=C\CCCC(=O)O [PGE2] |  | 

Continued, compound first:

Row | Compound | effect on IKK activity in vivo (cells), FIG. 5A (IKK [1]) | effect on IKK activity in vitro, FIG. 5B (IKK [2]) | inhibition of IKKβ (IKKβ) | effect on NF-κB activation (NF-κB)
7 | CC(=O)Oc1ccccc1C(=O)O [aspirin] |  |  | inhibited | 
8 | CCCCC/C=C\C/C=C\C/C=C\C/C=C\CCCC(=O)O [Arachidonic acid, arachidonic acid] | ineffective | ineffective |  | 
9 | CCCCC[C@H](O)/C=C/[C@@H]1[C@@H](CCCCCCC(=O)O)[C@@H](O)C[C@H]1O [PGF1α] | ineffective | ineffective |  | 
10 | Cc1c(C)c2c(c(C)c1O)CCC(C)(COc1ccc(CC3SC(=O)NC3=O)cc1)O2 (stereo not drawn) [troglitazone, reference compound] |  |  |  | does not inhibit

Reference: patent US6649654B1, “Methods for identifying and using IKK inhibitors” (The Regents of the University of California, priority 1999, dated 2003)
